Test results published in patent US20140200210A1, “PHARMACEUTICAL COMPOSITION FOR TREATING PREMATURE EJACULATION AND METHOD FOR TREATING PREMATURE EJACULATION” (CTC BIO, INC., priority 2011, published 2014).
Counter-ions that a name gives are not always drawn.

System: male patients suffering from premature ejaculation
Experiment: Phase 2b clinical study, effect evaluation: intravaginal ejaculation latency time (IELT)
Format: in vivo, human
Source text: Male patients suffering from premature ejaculation were subject to the following parallel clinical study (Phase 2b) (randomized, double-blind, placebo-controlled and fixed dose study) for evaluating tolerance and determining a proper therapeutic capacity.
• Subjects who passed screening entered a 4-week run-in period, and were randomized in 1:1:1 ratio of 2 groups with clomipramine and 1 group with placebo and subject to a double blind experiment. […] Each subject visited the hospital after taking the test drugs for 4 weeks by on-demand therapy.
Group 0 was administered with a tablet of 15 mg placebo and a tablet of 30 mg placebo, Group 1 was administered with a tablet of 15 mg clomipramine HCl and a tablet of 30 mg placebo, and Group 2 was administered with a tablet of 30 mg clomipramine HCl and a tablet of 15 mg placebo for 4 weeks on-demand at about 2 hours to 6 hours prior to sexual activity. The tablets were orally taken with a glass of water.
Primary effectiveness evaluation variables in this clinical study include an IELT fold change at visit 3 (measuring between 0 and 4 weeks) relative to baseline values (i.e., IELT fold change=Value of IELT measured at visit 3 (0 to 4 weeks)/Value of IELT measured at baseline) in each of Group 0 (with treatment of placebo), Group 1 (with treatment of 15 mg clomipramine HCl) and Group 2 (with treatment of 30 mg clomipramine HCl). […]
(1) After administering placebo and 15 mg of clomipramine, and placebo and 30 mg of clomipramine for the period of 4 weeks, a change (%) of IELT values between 0 to 4 weeks after administration, relative to before administration, was calculated by the equation [Change (%) of IELT Values=(Value of IELT measured at 0 to 4 weeks−Value of IELT measured at baseline)×100/Value of IELT measured at baseline].
(2) After administering placebo and 15 mg of clomipramine, and placebo and 30 mg of clomipramine for the period of 4 weeks, a mean change of IELT values between 0 to 4 weeks after administration was calculated. […]

CN(C)CCCN1c2ccccc2CCc2ccc(Cl)cc21 [clomipramine, clomipramine hydrochloride]
minimum effective dose (case of ITT1): 30 mg
minimum effective dose (cases of ITT2 and ITT3): 15 mg
minimum effective dose (considering overall situations): 15 mg
